Experimental data as given in article PMC2705655, “The Nicotinic Acetylcholine Receptors of the Parasitic Nematode Ascaris suum: Formation of Two Distinct Drug Targets by Varying the Relative Expression Levels of Two Subunits” (PLoS Pathogens, 2009).

Experiments:
Assay in all cases: two-electrode voltage clamp, Xenopus oocytes
Type in all cases: cell-based
[1] = target: T1, 1:5 Asu-unc-38:Asu-unc-29 receptor, putative (Asu-UNC-38)2(Asu-UNC-29)3, L-subtype nAChR (Ascaris suum, UniProt A7UFK6+A9XWS2); conditions: -60 mV; cRNA ratio 1:5; response too small to quantify
T1 construct: full-length cDNAs of both subunits in pT7TS, cRNAs co-injected 1:5 into Xenopus oocytes; no tag
T1 sequence (A7UFK6 22-513): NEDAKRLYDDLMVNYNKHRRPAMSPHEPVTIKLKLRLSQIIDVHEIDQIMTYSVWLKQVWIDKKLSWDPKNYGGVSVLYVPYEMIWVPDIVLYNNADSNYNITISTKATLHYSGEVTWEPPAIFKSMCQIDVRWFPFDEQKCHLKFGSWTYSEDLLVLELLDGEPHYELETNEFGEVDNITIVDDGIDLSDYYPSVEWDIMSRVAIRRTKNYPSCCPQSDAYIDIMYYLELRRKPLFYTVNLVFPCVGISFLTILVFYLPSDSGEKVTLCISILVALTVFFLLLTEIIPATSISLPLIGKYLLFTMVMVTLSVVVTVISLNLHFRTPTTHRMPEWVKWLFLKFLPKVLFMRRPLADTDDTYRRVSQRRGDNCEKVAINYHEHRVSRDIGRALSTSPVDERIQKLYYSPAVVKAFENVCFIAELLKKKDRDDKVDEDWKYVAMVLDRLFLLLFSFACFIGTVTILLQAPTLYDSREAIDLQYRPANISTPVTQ
T1 sequence (A9XWS2 27-513): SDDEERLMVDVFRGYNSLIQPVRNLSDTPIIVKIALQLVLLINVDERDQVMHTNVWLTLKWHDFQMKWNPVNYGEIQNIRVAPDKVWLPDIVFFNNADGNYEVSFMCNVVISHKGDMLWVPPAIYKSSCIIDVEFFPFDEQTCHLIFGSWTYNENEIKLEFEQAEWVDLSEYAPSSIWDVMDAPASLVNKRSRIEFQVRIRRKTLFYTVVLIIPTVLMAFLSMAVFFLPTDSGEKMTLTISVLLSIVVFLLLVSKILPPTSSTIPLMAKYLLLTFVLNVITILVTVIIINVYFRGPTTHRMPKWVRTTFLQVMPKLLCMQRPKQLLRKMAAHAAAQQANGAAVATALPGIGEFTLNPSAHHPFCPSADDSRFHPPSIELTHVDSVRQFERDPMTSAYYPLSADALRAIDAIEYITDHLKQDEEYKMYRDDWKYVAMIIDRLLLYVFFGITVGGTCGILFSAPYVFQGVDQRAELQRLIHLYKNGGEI

[2] = target: T2, 5:1 Asu-unc-38:Asu-unc-29 receptor, putative (Asu-UNC-38)3(Asu-UNC-29)2, N-subtype nAChR (Ascaris suum, UniProt A7UFK6+A9XWS2)
T2 construct: full-length cDNAs of both subunits in pT7TS, cRNAs co-injected 5:1 into Xenopus oocytes; no tag
T2 sequence (A7UFK6 22-513): T1 sequence (A7UFK6 22-513)
T2 sequence (A9XWS2 27-513): T1 sequence (A9XWS2 27-513)
Excerpt: two-electrode voltage clamp, Xenopus oocytes on 5:1 Asu-unc-38:Asu-unc-29 receptor, putative (Asu-UNC-38)3(Asu-UNC-29)2, N-subtype nAChR

[3] = target: T1, 1:5 Asu-unc-38:Asu-unc-29 receptor, putative (Asu-UNC-38)2(Asu-UNC-29)3, L-subtype nAChR
Excerpt: two-electrode voltage clamp, Xenopus oocytes on 1:5 Asu-unc-38:Asu-unc-29 receptor, putative (Asu-UNC-38)2(Asu-UNC-29)3, L-subtype nAChR

[4] = target: T2, 5:1 Asu-unc-38:Asu-unc-29 receptor, putative (Asu-UNC-38)3(Asu-UNC-29)2, N-subtype nAChR; conditions: -60 mV; cRNA ratio 5:1; response too small to quantify

Row | SMILES | two-electrode voltage clamp, Xenopus oocytes [1] | EC50 [2] | EC50 [3] | two-electrode voltage clamp, Xenopus oocytes [4]
1 | CN1CCCN=C1/C=C/c1cccc(O)c1 [oxantel] | but gave a negligible response to oxantel | 4070 nM | – | –
2 | CN1CCCN=C1/C=C/c1cccs1 [pyrantel] | – | – | 398 nM | but gave very little response to pyrantel
